From patent publication US9914730B2, “Azaquinazoline inhibitors of Atypical protein Kinase C” (Ignyta, Inc., priority 2012, dated 2018)

What follows are compounds tested against T1, full-length human PKCι (Homo sapiens, UniProt P41743) (assay: PKCι IC50 IMAP assay, full-length PKCι at 150 μM ATP). Conditions: read-out: IC50 in IMAP assay against full length PKCi at 150 μM ATP.
T1 construct: Recombinant, full-length human PKCι expressed in Sf21 insect cells is also commercially available; purchased; host or cells: Sf21 insect cells
T1 sequence (P41743 1-596): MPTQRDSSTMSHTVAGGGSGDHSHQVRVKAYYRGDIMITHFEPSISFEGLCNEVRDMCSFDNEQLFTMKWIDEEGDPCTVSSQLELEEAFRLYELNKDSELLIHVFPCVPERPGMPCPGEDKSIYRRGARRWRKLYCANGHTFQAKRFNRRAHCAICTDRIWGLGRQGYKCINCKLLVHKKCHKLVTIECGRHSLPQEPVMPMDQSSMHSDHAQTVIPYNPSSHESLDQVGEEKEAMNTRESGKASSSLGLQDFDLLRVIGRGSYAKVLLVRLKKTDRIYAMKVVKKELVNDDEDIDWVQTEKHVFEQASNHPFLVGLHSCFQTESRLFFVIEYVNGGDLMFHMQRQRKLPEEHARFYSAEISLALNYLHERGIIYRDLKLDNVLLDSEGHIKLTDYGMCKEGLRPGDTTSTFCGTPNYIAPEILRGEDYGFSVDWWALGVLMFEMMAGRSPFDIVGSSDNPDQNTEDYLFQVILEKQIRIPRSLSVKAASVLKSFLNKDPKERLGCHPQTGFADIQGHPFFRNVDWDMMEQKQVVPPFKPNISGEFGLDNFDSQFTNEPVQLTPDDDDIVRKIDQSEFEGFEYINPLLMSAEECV
Format: biochemical
Outline: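 Full-length hPKCι (Sf21) ~15 pM; 5FAM-peptide 100 nM; ATP 150 μM (5× KM^APP); tris pH7.5/MgCl2/EGTA/DTT/Triton, 4% DMSO; 60 min RT; IMAP stop, 2 h; FP 485/530 nm; IC50 from % inhibition curves.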

Row | IC50 | Structure (SMILES)
1 | 1000 to 10000 nM | COc1cncc2nc(-c3ccnc(Nc4ccccc4)c3)nc(NCCC(N)=O)c12 [Example 458, 3-[5-Methoxy-2-(2-phenylamino-pyridin-4-yl)-pyrido[3,4-d]pyrimidin-4-ylamino]-propionamide]
2 | 10000 to 40000 nM | COc1cncc2nc(-c3ccnc(Nc4ccccc4)c3)nc(N3CCC(F)(F)CC3)c12 [Example 460, {4-[4-(4,4-Difluoro-piperidin-1-yl)-5-methoxy-pyrido[3,4-d]pyrimidin-2-yl]-pyridin-2-yl}-phenyl-amine]
3 | 1000 to 10000 nM | COc1cncc2nc(-c3ccnc(Nc4ccccc4)c3)nc(N3CC[C@@H](O)[C@@H](O)CC3)c12 [Example 467, (meso)-cis-1-[5-Methoxy-2-(2-phenylamino-pyridin-4-yl)-pyrido[3,4-d]pyrimidin-4-yl]-azepane-4,5-diol]
4 | 100 to 1000 nM | COc1cncc2nc(-c3ccnc(Nc4cccc(F)n4)c3)nc(N3CCC(O)CC3)c12 [Example 468, 1-{2-[2-(6-Fluoro-pyridin-2-ylamino)-pyridin-4-yl]-5-methoxy-pyrido[3,4-d]pyrimidin-4-yl}-piperidin-4-ol]
5 | 1000 to 10000 nM | COc1cccc(Nc2cc(-c3nc(N4CCC(O)CC4)c4c(OC)cncc4n3)ccn2)n1 [Example 469, 1-{5-Methoxy-2-[2-(6-methoxy-pyridin-2-ylamino)-pyridin-4-yl]-pyrido[3,4-d]pyrimidin-4-yl}-piperidin-4-ol]
6 | 1000 to 10000 nM | COc1cncc2nc(-c3ccnc(Nc4cccc(F)n4)c3)nc(N3CC[C@H](CO)C3)c12 [Example 470, ((S)-1-{2-[2-(6-Fluoro-pyridin-2-ylamino)-pyridin-4-yl]-5-methoxy-pyrido[3,4-d]pyrimidin-4-yl}-pyrrolidin-3-yl)-methanol]
7 | 1000 to 10000 nM | COc1cccc(Nc2cc(-c3nc(N4CC[C@H](CO)C4)c4c(OC)cncc4n3)ccn2)n1 [Example 471, ((S)-1-{5-Methoxy-2-[2-(6-methoxy-pyridin-2-ylamino)-pyridin-4-yl]-pyrido[3,4-d]pyrimidin-4-yl}-pyrrolidin-3-yl)-methanol]
8 | < 100 nM | Clc1ccccc1Nc1cc(-c2nc(N3CCNCC3)c3c(C4CC4)cncc3n2)ccn1 [Example 477, (2-Chloro-phenyl)-[4-(5-cyclopropyl-4-piperazin-1-yl-pyrido[3,4-d]pyrimidin-2-yl)-pyridin-2-yl]-amine]
9 | < 100 nM | Cc1ccncc1Nc1cc(-c2nc(N3CCNCC3)c3c(C4CC4)cncc3n2)ccn1 [Example 478, [4-(5-Cyclopropyl-4-piperazin-1-yl-pyrido[3,4-d]pyrimidin-2-yl)-pyridin-2-yl]-(4-methyl-pyridin-3-yl)-amine]
10 | 100 to 1000 nM | N#Cc1ccnc(Nc2cc(-c3nc(N4CCC(O)CC4)c4c(C5CC5)cncc4n3)ccn2)c1 [Example 482, 2-{4-[5-Cyclopropyl-4-(4-hydroxy-piperidin-1-yl)-pyrido[3,4-d]pyrimidin-2-yl]-pyridin-2-ylamino}-isonicotinonitrile]
11 | < 100 nM | Fc1cccc(Nc2cc(-c3nc(N4CCNCC4)c4c(C5CC5)cncc4n3)ccn2)n1 [Example 483, [4-(5-Cyclopropyl-4-piperazin-1-yl-pyrido[3,4-d]pyrimidin-2-yl)-pyridin-2-yl]-(6-fluoro-pyridin-2-yl)-amine]
12 | < 100 nM | Cc1ccccc1Nc1cc(-c2nc(N3CCNCC3)c3c(C4CC4)cncc3n2)ccn1 [Example 486, [4-(5-Cyclopropyl-4-piperazin-1-yl-pyrido[3,4-d]pyrimidin-2-yl)-pyridin-2-yl]-o-tolyl-amine]
13 | < 100 nM | COc1cncc2nc(-c3ccnc(Nc4cnn(-c5ccccc5)c4)c3)nc(N3CCNCC3)c12 [Example 489, 4-(5-Methoxy-4-piperazin-1-yl-pyrido[3,4-d]pyrimidin-2-yl)-N-(1-phenylpyrazol-4-yl)pyridin-2-amine]
14 | < 100 nM | COc1cncc2nc(-c3ccnc(Nc4ccc5c(C)n(C)nc5c4)c3)nc(N3CCNCC3)c12 [Example 490, (2,3-Dimethyl-2H-indazol-6-yl)-[4-(5-methoxy-4-piperazin-1-yl-pyrido[3,4-d]pyrimidin-2-yl)-pyridin-2-yl]-amine]
15 | < 100 nM | COc1cncc2nc(-c3ccnc(Nc4cnn(-c5ccccc5F)c4)c3)nc(N3CCNCC3)c12 [Example 491, [1-(2-Fluoro-phenyl)-1H-pyrazol-4-yl]-[4-(5-methoxy-4-piperazin-1-yl-pyrido[3,4-d]pyrimidin-2-yl)-pyridin-2-yl]-amine]
16 | < 100 nM | c1ccc(-n2cc(Nc3cc(-c4nc(N5CCNCC5)c5c(C6CC6)cncc5n4)ccn3)cn2)cc1 [Example 492, [4-(5-cyclopropyl-4-piperazin-1-yl-pyrido[3,4-d]pyrimidin-2-yl)-pyridin-2-yl]-(1-phenyl-1H-pyrazol-4-yl)-amine]

Row | IC50 | Structure (SMILES)
17 | < 100 nM | Cc1c2ccc(Nc3cc(-c4nc(N5CCNCC5)c5c(C6CC6)cncc5n4)ccn3)cc2nn1C [Example 493, [4-(5-Cyclopropyl-4-piperazin-1-yl-pyrido[3,4-d]pyrimidin-2-yl)-pyridin-2-yl]-(2,3-dimethyl-2H-indazol-6-yl)-amine]
18 | 100 to 1000 nM | c1ccc(Nc2cc(-c3nc(N4CCNCC4)c4ccncc4n3)ccn2)cc1 [Example 494, Phenyl-[4-(4-piperazin-1-yl-pyrido[3,4-d]pyrimidin-2-yl)-pyridin-2-yl]-amine]
19 | < 100 nM | Fc1ncccc1Nc1cc(-c2nc(N3CCNCC3)c3c(C4CC4)cncc3n2)ccn1 [Example 495, [4-(5-cyclopropyl-4-piperazin-1-yl-pyrido[3,4-d]pyrimidin-2-yl)-pyridin-2-yl]-(2-fluoro-pyridin-3-yl)-amine]
20 | 10000 to 40000 nM | COc1cncc2nc(-c3ccnc(Nc4cc(C)on4)c3)nc(N3CCNCC3)c12 [Example 496, [4-(5-Methoxy-4-piperazin-1-yl-pyrido[3,4-d]pyrimidin-2-yl)-pyridin-2-yl]-(5-methyl-isoxazol-3-yl)-amine]
21 | 10000 to 40000 nM | Oc1nc(-c2ccnc(Nc3cccc(N4CCNCC4)c3)c2)nc2cnccc12 [Example 497, 2-[2-(3-piperazin-1-yl-phenylamino)-pyridin-4-yl]-pyrido[3,4-d]pyrimidin-4-ol]
22 | 10000 to 40000 nM | Oc1nc(-c2ccnc(Nc3cccc(CN4CCNCC4)c3)c2)nc2cnccc12 [Example 498, 2-[2-(3-piperazin-1-ylmethyl-phenylamino)-pyridin-4-yl]-pyrido[3,4-d]pyrimidin-4-ol]
23 | 10000 to 40000 nM | Oc1nc(-c2ccnc(Nc3cnn(CC4CCNCC4)c3)c2)nc2cnccc12 [Example 499, 2-[2-(1-Piperidin-4-ylmethyl-1H-pyrazol-4-ylamino)-pyridin-4-yl]-pyrido[3,4-d]pyrimidin-4-ol]
24 | 100 to 1000 nM | CNc1nc(-c2ccnc(Nc3cccc(N4CCNCC4)c3)c2)nc2cncc(OC)c12 [Example 500, {5-Methoxy-2-[2-(3-piperazin-1-yl-phenylamino)-pyridin-4-yl]-pyrido[3,4-d]pyrimidin-4-yl}-methyl-amine]
25 | 10000 to 40000 nM | CNc1nc(-c2ccnc(Nc3ccc(OCCN4CCCC4)cc3)c2)nc2cncc(OC)c12 [Example 501, (5-Methoxy-2-{2-[4-(2-pyrrolidin-1-yl-ethoxy)-phenylamino]-pyridin-4-yl}-pyrido[3,4-d]pyrimidin-4-yl)-methyl-amine]
26 | 1000 to 10000 nM | CNc1nc(-c2ccnc(Nc3cccc(C4CCNCC4)c3)c2)nc2cncc(OC)c12 [Example 502, {5-Methoxy-2-[2-(3-piperidin-4-yl-phenylamino)-pyridin-4-yl]-pyrido[3,4-d]pyrimidin-4-yl}-methyl-amine]
27 | 1000 to 10000 nM | COc1cncc2nc(-c3ccnc(Nc4cccc(N5CCNCC5)c4)c3)ncc12 [Example 503, [4-(5-Methoxy-pyrido[3,4-d]pyrimidin-2-yl)-pyridin-2-yl]-(3-piperazin-1-yl-phenyl)-amine]
28 | < 100 nM | Cc1ccc(F)c(Nc2cc(-c3nc(N4CCNCC4)c4c(C5CC5)cncc4n3)ccn2)c1 [Example 504, [4-(5-Cyclopropyl-4-piperazin-1-yl-pyrido[3,4-d]pyrimidin-2-yl)-pyridin-2-yl]-(2-fluoro-5-methyl-phenyl)-amine]
29 | < 100 nM | Cc1ccc(C)c(Nc2cc(-c3nc(N4CCNCC4)c4c(C5CC5)cncc4n3)ccn2)c1 [Example 505, [4-(5-Cyclopropyl-4-piperazin-1-yl-pyrido[3,4-d]pyrimidin-2-yl)-pyridin-2-yl]-(2,5-dimethyl-phenyl)-amine]
30 | 100 to 1000 nM | N#Cc1ccc(Nc2cc(-c3nc(N4CCNCC4)c4c(C5CC5)cncc4n3)ccn2)cn1 [Example 506, 5-[4-(5-Cyclopropyl-4-piperazin-1-yl-pyrido[3,4-d]pyrimidin-2-yl)-pyridin-2-ylamino]-pyridine-2-carbonitrile]
31 | < 100 nM | c1cnc(Nc2cc(-c3nc(N4CCNCC4)c4c(C5CC5)cncc4n3)ccn2)cn1 [Example 507]
32 | < 100 nM | FC(F)(F)C1CN(c2nc(-c3ccnc(NC4CC4)c3)nc3cncc(C4CC4)c23)CCN1 (centres unmarked) [Example 508, Cyclopropyl-{4-[5-cyclopropyl-4-(3-trifluoromethyl-piperazin-1-yl)-pyrido[3,4-d]pyrimidin-2-yl]-pyridin-2-yl}-amine]
